Read-outs that look alike come from different tables or passages of the source.

Test [1] addresses T1, fibrinogen receptor (glycoprotein IIb/IIIa) (Homo sapiens, UniProt P05106+P08514).
T1 construct: endogenous in cells; host or cells: gel-filtered human platelets from donor blood, stimulated with ADP (10 µM)
Nature of the test: Inhibition of binding of 125I-fibrinogen to its receptor on intact, gel-filtered human platelets. The note with it: inhibition of 125I-fibrinogen binding, stimulation with ADP (10 μM), read-out: Ki (μM), ADP-stimulated. The protocol: (§1) The compounds are tested in particular for their inhibitory action in blood platelet aggregation and the adhesion of fibrinogen to blood platelets. Gel-filtered blood platelets from human donor blood are used, which are activated with ADP or thrombin.
The inhibition of the binding of fibrinogen to its receptor (glycoprotein IIb/IIIa) by the compounds according to the invention is tested on intact, gel-filtered human platelets. The Ki value of the inhibition of binding of ^125 I-fibrinogen after stimulation with ADP (10 μM) is given.

Test [2] deals with gel-filtered human platelets. In words: Inhibition of aggregation of gel-filtered human platelets after ADP or thrombin stimulation. The format is cell-based. The method, then:
as §1
As a functional test, the inhibition of aggregation of gel-filtered human platelets by the compounds according to the invention is measured after ADP or thrombin stimulation. The IC50 value of the inhibition is given.

Setting [3] is: ADP stimulation, read-out: IC50 (μM), ADP-stimulated.
The mark [4] stands for this setting: thrombin stimulation, read-out: IC50 (μM), Thrombin-stimulated.
Where [5] appears, read: Platelet, ADP stimulation, read-out: IC50 (μM), ADP-stimulated.
Setting [6] is: Platelet, thrombin stimulation, read-out: IC50 (μM), Thrombin-stimulated.

T1 sequence (P08514 32-887 limits assumed): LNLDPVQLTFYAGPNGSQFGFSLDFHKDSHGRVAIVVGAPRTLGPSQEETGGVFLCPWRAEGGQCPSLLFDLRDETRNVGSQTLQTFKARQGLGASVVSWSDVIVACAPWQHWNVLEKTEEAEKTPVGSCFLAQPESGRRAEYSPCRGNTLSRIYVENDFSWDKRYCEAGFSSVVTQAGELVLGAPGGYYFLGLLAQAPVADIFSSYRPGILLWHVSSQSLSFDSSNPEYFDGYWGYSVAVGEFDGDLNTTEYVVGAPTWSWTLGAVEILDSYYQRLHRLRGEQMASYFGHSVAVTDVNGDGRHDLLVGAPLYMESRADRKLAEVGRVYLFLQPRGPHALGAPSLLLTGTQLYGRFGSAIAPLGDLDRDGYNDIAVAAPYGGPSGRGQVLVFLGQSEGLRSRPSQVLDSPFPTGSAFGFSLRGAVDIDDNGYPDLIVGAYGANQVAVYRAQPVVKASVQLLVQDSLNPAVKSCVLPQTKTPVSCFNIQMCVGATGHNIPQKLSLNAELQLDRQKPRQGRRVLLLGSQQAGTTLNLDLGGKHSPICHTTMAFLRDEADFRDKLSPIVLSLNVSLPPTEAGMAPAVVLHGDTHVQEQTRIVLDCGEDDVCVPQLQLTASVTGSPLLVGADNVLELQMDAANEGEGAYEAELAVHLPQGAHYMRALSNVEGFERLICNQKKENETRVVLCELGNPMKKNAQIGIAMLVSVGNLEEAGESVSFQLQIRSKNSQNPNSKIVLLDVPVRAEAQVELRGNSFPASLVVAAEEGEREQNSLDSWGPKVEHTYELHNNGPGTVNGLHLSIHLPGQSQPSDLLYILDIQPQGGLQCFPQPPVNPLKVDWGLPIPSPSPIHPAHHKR
T1 sequence (P08514 891-1039 partner limits assumed): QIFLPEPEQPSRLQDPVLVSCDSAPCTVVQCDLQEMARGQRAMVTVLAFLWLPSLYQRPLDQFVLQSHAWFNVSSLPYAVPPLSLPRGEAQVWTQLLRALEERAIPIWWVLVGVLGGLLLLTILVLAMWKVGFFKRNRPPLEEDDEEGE
T1 sequence (P05106 27-788): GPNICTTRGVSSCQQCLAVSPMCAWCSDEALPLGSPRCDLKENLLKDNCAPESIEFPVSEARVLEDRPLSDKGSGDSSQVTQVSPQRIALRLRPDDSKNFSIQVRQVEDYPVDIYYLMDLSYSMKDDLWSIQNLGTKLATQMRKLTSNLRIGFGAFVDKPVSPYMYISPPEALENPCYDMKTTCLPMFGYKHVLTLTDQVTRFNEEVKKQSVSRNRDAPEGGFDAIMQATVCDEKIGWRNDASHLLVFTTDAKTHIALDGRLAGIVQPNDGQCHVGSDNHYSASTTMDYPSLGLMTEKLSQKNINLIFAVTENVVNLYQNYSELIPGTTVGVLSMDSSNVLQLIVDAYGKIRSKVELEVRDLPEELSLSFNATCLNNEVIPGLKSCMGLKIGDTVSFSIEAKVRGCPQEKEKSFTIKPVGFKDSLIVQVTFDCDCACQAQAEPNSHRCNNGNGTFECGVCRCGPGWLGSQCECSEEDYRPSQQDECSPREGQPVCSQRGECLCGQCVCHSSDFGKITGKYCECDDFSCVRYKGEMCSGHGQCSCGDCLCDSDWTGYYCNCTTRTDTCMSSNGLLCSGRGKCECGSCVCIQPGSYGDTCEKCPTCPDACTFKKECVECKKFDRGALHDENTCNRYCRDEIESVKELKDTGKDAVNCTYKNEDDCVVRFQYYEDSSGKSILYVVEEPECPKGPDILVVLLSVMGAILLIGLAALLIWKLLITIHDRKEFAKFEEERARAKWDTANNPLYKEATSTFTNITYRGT

The term Ki denotes the equilibrium dissociation constant of an inhibitor or competing ligand from its target. The term IC50 denotes the concentration that gives 50% inhibition. In the case of `N=C(N)c1ccc(CC2NC(=O)N(CC(=O)N[C@@H](CC(=O)O)C(=O)N[C@@H](Cc3ccccc3)C(=O)NCCCCN)C2=O)cc1` (stereo partly drawn) [Example 4, (5-(R,S)-(4-Formamidinobenzyl)-2,4-dioxoimidazolidin-3-yl)acetyl-L-aspartyl-L-phenylalanine (4-aminobutyl) amide acetate], the inhibitory constant (Ki) in test [1] is 0.32 µM. The IC50 in test [2] (setting [3]) amounted to 0.45 µM; in test [2] (setting [4]), 1 µM.

Turning to `N=C(N)c1ccc(CC2NC(=O)N(CC(=O)N[C@@H](CC(=O)O)C(=O)N[C@@H](CCCCN)C(=O)NCCCCN)C2=O)cc1` (stereo partly drawn) [Example 7, (5-(R,S)-(4-Formamidino-benzyl)-2,4-dioxoimidazolidin-3-yl)acetyl-L-aspartyl-L-lysine (4-aminobutyl) amide], the inhibition constant (Ki) in test [1] turned out to be 0.17 µM. In addition, the concentration for half-maximal inhibition (IC50) in test [2] (setting [3]) was found to be 0.25 µM; in test [2] (setting [4]), 0.6 µM.

Turning to `N=C(N)NCCC[C@@H]1NC(=O)N(CC(=O)N[C@@H](CC(=O)O)C(=O)N[C@@H](Cc2ccccc2)C(=O)NCCCCCCN)C1=O` [Example 2, (5-(S)-(3-Guanidinopropyl)-2,4-dioxoimidazolidin-3-yl)acetyl-L-aspartyl-L-phenylalanine (6-aminohexyl) amide acetate], the inhibition constant Ki in test [1] is 2.44 µM. For the same molecule, the half-inhibitory concentration (IC50) was 3 µM in test [2] (setting [5]) and 3.5 µM in test [2] (setting [6]).

Consider `N=C(N)NCCC[C@@H]1NC(=O)N(CC(=O)N[C@@H](CC(=O)O)C(=O)N[C@@H](Cc2ccccc2)C(=O)NCCCCN)C1=O` [Example 1, (5-(S)-(3-Guanidinopropyl)-2,4-dioxoimidazolidin-3-yl)acetyl-L-aspartyl-L-phenylalanine (4-aminobutyl) amide acetate], for which the Ki in test [1] came out at 2.5 µM. For the same molecule, the half-inhibitory concentration (IC50) in test [2] (setting [5]) came out at 1.5 µM; in test [2] (setting [6]), 2 µM.

Regarding `N=C(N)NCCC[C@@H]1NC(=O)N(CC(=O)N[C@@H](CC(=O)O)C(=O)N[C@@H](Cc2ccccc2)C(=O)NCCCCCCCCN)C1=O` [Example 3, (5-(S)-(3-Guanidinopropyl)-2,4-dioxoimidazolidin-3-yl)acetyl-L-aspartyl-L-phenylalanine (8-aminooctyl) amide acetate], the Ki in test [1] was found to be 3.21 µM. The IC50 in test [2] (setting [5]) came to 5 µM; in test [2] (setting [6]) it was 3 µM.

For the origin of these results see patent publication US5397796A, “2,4-dioxoimidazolidine compounds and compositions, and processes for administering same” (Cassella AG, priority 1992, dated 1995).
